{
  "source": "ChEMBL document CHEMBL5465560",
  "about": "“Selectivity Literature for EUbOPEN Chemogenomic Library” (2024)",
  "key": {"[1]": {"target": "Tyrosine-protein kinase ITK/TSK (Homo sapiens, UniProt Q08881)", "sequence (Q08881 whole entry)": "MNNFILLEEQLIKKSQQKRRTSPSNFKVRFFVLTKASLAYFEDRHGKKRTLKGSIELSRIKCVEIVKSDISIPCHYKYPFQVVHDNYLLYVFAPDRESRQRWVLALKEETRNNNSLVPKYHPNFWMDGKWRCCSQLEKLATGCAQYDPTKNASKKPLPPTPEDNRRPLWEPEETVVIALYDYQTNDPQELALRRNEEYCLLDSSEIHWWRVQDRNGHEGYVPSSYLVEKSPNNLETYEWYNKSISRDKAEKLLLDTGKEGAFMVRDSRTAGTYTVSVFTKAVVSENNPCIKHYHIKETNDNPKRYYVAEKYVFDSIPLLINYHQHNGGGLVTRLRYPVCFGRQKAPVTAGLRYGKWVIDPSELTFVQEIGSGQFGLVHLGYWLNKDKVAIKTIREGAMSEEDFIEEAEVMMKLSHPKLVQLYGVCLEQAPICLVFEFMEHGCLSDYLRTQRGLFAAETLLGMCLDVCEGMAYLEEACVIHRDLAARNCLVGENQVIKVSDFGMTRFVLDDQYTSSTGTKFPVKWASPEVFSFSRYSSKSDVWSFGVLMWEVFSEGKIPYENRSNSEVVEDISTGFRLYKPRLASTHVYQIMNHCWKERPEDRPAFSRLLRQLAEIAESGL", "assay": "Selectivity interaction (Enyzmatic assay) EUB0000601a ITK"}, "[2]": {"target": "T1, Ephrin type-B receptor 1 (Homo sapiens) (UniProt P54762)", "T1 sequence (whole entry)": "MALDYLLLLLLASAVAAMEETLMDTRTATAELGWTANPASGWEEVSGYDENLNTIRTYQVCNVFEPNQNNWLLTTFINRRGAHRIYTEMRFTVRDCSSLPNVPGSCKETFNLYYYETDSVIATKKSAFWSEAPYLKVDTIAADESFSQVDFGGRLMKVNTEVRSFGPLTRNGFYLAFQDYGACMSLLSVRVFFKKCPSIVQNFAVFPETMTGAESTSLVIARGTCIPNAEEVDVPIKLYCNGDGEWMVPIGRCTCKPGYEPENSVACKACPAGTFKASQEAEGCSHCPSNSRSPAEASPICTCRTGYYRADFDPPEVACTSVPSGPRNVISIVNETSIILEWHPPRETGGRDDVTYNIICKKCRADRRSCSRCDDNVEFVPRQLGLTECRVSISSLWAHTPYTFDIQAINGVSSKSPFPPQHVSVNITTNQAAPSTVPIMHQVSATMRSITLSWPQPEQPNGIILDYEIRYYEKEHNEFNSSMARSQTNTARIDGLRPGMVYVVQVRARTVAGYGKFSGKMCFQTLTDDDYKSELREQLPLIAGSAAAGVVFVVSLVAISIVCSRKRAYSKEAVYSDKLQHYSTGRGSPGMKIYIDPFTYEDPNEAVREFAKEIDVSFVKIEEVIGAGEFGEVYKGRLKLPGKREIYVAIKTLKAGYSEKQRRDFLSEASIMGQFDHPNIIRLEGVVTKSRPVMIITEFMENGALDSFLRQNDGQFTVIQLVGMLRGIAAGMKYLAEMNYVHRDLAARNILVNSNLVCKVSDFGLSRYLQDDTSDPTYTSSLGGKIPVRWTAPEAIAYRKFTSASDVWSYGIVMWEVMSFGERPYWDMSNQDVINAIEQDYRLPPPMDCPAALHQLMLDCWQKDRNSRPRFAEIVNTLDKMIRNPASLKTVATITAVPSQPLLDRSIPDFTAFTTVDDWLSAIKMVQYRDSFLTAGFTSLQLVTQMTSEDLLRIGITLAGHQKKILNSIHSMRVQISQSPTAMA", "assay": "Selectivity interaction (KinomeScan (DiscoverX)) EUB0001079a EPHB1", "details": "at 1 µM"}, "[3]": {"target": "Calcium/calmodulin-dependent protein kinase kinase 2 (Homo sapiens) (UniProt Q96RR4)", "sequence (Q96RR4 2-588 limits assumed)": "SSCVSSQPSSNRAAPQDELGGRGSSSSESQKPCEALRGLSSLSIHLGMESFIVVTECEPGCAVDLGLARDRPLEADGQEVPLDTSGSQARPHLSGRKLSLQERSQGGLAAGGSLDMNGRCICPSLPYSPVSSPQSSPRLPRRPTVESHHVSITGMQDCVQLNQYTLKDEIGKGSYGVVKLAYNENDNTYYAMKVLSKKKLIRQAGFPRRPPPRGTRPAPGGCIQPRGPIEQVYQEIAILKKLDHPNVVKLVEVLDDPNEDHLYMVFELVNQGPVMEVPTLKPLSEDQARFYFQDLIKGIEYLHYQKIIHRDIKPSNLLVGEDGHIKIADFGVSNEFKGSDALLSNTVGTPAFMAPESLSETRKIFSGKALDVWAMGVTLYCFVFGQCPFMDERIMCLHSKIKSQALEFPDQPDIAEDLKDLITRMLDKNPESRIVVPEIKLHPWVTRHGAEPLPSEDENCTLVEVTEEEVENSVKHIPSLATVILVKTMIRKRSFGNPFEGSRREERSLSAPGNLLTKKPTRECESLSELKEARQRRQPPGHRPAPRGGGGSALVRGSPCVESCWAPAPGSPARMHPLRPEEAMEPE", "assay": "Selectivity interaction (Kinase panel (DSF assay)) EUB0001558a CAMKK2"}, "[4]": {"target": "T2, Calcium/calmodulin-dependent protein kinase type IV (Homo sapiens) (UniProt Q16566)", "T2 sequence (whole entry)": "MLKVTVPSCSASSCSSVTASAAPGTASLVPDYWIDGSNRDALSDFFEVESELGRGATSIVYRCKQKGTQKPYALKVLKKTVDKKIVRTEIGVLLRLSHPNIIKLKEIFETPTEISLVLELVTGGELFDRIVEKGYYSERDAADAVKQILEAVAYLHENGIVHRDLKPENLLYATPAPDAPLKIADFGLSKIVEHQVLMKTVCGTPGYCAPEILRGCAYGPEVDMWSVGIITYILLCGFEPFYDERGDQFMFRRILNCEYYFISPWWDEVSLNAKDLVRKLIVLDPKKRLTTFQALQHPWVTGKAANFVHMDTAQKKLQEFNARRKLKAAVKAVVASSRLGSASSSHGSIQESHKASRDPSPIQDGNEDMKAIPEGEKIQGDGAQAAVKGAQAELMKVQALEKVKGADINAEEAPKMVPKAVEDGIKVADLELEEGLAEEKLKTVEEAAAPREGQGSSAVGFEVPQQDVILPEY", "assay": "Selectivity interaction (Kinase panel (KiNativ target engagement assay in Jurkat cells)) EUB0001635a CAMK4", "format": "cell-based", "details": "Selectivity number of off-targets 0.0, Selectivity number of targets 233.0, Source Knowledge https://www.sciencedirect.com/science/article/pii/S2451945619300674?via%3Dihub, at 1 µM"}, "[5]": {"target": "T3, Serine/threonine-protein kinase LATS2 (Homo sapiens) (UniProt Q9NRM7)", "T3 sequence (whole entry)": "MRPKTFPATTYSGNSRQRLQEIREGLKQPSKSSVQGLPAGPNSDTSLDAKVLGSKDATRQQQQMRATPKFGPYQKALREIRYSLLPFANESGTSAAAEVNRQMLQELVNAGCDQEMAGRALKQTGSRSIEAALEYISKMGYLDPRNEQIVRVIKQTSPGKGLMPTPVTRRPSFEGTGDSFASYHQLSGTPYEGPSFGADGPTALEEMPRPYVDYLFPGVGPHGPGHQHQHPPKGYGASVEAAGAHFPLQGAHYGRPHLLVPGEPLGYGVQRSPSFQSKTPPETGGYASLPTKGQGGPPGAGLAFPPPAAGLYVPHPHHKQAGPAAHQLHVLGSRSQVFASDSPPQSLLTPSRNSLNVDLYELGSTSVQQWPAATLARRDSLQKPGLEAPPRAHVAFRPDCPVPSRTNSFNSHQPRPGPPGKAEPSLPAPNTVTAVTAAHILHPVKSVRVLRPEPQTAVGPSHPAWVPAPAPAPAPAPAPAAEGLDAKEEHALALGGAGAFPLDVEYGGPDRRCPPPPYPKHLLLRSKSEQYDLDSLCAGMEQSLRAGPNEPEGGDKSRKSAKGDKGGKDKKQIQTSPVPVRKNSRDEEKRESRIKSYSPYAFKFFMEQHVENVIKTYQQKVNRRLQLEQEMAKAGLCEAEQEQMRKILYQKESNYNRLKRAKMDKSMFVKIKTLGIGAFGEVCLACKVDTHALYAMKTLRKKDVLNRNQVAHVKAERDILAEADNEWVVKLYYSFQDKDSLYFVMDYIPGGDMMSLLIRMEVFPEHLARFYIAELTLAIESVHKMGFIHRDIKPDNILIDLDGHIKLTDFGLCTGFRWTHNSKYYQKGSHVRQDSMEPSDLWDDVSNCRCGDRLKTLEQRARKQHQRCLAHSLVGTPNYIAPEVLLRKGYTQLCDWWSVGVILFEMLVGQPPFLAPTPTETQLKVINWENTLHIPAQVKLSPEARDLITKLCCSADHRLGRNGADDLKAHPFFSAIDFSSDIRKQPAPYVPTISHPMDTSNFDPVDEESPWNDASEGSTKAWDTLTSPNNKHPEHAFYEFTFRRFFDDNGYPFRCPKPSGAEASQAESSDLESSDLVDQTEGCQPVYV", "assay": "Selectivity interaction (KinomeScan (DiscoverX)) EUB0000655a LATS2", "details": "at 10 µM"}, "[6]": {"target": "Fibroblast growth factor receptor 4 (Homo sapiens, UniProt P22455)", "sequence (P22455 22-802 limits assumed)": "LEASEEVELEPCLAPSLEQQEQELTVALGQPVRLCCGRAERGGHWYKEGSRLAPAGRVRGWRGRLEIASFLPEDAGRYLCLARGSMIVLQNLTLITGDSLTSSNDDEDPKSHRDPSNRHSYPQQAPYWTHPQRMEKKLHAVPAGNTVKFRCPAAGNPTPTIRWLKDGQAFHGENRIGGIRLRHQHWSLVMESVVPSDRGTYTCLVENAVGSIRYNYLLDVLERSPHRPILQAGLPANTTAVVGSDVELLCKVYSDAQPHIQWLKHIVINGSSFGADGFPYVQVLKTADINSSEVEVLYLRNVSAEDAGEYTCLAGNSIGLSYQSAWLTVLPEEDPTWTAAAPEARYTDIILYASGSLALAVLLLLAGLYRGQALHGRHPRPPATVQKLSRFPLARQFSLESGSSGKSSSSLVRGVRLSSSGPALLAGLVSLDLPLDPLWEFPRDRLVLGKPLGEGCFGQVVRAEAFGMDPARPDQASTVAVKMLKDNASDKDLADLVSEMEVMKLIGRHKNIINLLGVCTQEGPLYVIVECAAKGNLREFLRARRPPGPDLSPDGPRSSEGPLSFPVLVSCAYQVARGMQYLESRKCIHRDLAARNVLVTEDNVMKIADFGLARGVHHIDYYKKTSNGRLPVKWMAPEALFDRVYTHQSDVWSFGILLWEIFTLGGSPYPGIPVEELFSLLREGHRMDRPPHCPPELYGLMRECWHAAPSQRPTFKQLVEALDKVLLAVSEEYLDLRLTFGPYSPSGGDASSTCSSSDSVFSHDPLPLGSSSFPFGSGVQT", "assay": "Selectivity interaction (KinomeScan (DiscoverX)) EUB0000607a FGFR4", "details": "at 10 µM"}, "[7]": {"target": "Mitogen-activated protein kinase kinase kinase 10 (Homo sapiens) (UniProt Q02779)", "sequence (Q02779 whole entry, looked up)": "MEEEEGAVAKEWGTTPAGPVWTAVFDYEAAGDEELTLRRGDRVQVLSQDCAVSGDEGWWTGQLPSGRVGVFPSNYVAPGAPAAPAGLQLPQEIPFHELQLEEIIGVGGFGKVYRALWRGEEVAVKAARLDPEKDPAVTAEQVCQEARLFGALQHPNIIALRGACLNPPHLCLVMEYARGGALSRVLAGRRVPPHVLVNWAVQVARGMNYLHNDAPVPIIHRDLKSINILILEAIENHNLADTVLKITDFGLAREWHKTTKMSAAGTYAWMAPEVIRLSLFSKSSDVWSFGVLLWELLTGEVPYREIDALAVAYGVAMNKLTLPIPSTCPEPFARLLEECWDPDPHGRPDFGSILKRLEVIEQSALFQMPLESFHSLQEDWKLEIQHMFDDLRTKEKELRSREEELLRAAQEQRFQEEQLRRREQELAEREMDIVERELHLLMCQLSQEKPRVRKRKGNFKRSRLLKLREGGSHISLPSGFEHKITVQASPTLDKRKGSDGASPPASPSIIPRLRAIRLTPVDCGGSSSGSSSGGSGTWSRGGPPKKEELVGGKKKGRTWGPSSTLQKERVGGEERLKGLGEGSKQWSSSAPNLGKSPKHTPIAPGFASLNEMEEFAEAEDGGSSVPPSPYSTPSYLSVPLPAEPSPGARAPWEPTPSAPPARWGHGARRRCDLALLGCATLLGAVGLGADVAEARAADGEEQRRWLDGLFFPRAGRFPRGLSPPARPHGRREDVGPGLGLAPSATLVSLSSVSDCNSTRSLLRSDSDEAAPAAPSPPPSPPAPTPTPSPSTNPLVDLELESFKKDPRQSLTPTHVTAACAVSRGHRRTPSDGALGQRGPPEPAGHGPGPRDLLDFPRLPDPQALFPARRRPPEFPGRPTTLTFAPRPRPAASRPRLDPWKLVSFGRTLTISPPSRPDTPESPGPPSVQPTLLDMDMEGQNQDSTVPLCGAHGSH", "assay": "Selectivity interaction (LanthaScreen Eu Kinase Binding Assay) EUB0001632a MAP3K10", "details": "at 10 µM"}},
  "note": "pIC50: −log10 of the molar value.",
  "data": [
    {"smiles": "CCc1cc(Nc2nccc(-c3c(-c4ccc(OC)c(C(=O)Nc5c(F)cccc5F)c4)nc4ccccn34)n2)c(OC)cc1N1CCC(N2CCN(S(C)(=O)=O)CC2)CC1", "values": [
      {"measurement": "pIC50", "setting": "[1]", "value": "< 4.60"}
    ]},
    {"smiles": "Nc1cnc(N2CCc3cc(S(=O)(=O)Nc4c(F)cc(Cl)cc4F)cc(N4CCCC4=O)c32)nc1", "note": "[TP-020n]", "values": [
      {"measurement": "% of control", "setting": "[2]", "value": 92, "unit": "%"}
    ]},
    {"smiles": "CC(C)(O)[C@H](F)CN1Cc2cc(NC(=O)c3cnn4cccnc34)c(N3CCOCC3)cc2C1=O", "values": [
      {"measurement": "dTM", "setting": "[3]", "value": 4.3, "unit": "K"}
    ]},
    {"smiles": "C=CC(=O)Nc1ccc(C(=O)Nc2[nH]nc3c2CN(C(=O)N[C@H](CN(C)C)c2ccccc2)C3(C)C)cc1", "values": [
      {"measurement": "% of engagement", "setting": "[4]", "value": 4.5, "unit": "%"}
    ]},
    {"smiles": "CN(C)CCOc1ccc(-c2nc(-c3ccncc3)c(-c3ccc4c(c3)CC/C4=N\\O)[nH]2)cc1", "values": [
      {"measurement": "% of control", "setting": "[5]", "value": 45, "unit": "%"}
    ]},
    {"smiles": "CNC(=O)Nc1ccc(-c2nc(N3CC4CCC(C3)O4)c3cnn(C4CCC5(CC4)OCCO5)c3n2)cc1", "values": [
      {"measurement": "% of control", "setting": "[6]", "value": 62, "unit": "%"}
    ]},
    {"smiles": "Cn1cc(-n2cnc3c(NCc4nc5cc(Cl)c(Cl)cc5[nH]4)nc(N4CCOCC4)nc32)cn1", "values": [
      {"measurement": "% of inhibition", "setting": "[7]", "value": -1.64, "unit": "%"}
    ]}
  ]
}
